Usually Km stands for the concentration of substrate that gives half-maximal velocity.

In series [1] the target is T1, Sortilin (Homo sapiens, UniProt Q99523).
T1 sequence (Q99523 whole entry): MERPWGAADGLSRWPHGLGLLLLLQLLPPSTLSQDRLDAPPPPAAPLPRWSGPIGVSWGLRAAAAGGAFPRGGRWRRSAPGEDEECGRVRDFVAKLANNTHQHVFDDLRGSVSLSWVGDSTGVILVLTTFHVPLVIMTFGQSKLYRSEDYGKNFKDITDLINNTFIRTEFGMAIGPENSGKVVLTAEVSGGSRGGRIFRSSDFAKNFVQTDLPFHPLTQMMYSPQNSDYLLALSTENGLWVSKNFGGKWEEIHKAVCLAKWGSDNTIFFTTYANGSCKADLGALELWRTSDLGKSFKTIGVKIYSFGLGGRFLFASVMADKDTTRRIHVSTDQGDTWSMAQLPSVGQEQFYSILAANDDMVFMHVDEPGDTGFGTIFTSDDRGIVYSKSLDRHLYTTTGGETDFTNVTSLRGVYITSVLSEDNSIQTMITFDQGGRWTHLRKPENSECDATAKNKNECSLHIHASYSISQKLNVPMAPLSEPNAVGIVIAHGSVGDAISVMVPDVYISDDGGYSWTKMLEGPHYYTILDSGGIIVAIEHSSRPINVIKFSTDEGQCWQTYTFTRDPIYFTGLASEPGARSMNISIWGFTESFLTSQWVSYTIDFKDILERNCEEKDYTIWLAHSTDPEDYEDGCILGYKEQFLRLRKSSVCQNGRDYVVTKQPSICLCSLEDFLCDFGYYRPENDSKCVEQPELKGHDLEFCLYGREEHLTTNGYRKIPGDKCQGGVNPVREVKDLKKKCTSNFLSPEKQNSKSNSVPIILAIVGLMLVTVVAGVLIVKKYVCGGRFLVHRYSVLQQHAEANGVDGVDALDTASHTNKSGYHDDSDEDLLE
The experiment in a line: Substrate activity at human SORT1 expressed in HEK293 cells assessed as compound uptake incubated for 2 hrs by flow cytometry. In kind it is ADME, cell-based. Conditions: hek293, 2 h; call rule not given here. On the technique in general: In flow cytometry, cells or beads pass a laser one at a time.

The nature of series [2]: Drug uptake in HEK293 cells incubated for 2 hrs by flow cytometry. Format: ADME, cell-based. Conditions: human, hek293, 2 h.

Regarding `CC[C@H](C)[C@H](NC(=O)[C@H](Cc1ccc(O)cc1)NC(=O)[C@@H]1CCCN1C(=O)[C@H](CCCNC(=N)N)NC(=O)[C@H](CCCNC(=N)N)NC(=O)[C@@H]1CCCN1C(=O)[C@H](CCCCN)NC(=O)[C@H](CC(N)=O)NC(=O)[C@H](CCC(=O)O)NC(=O)[C@H](Cc1ccc(O)cc1)NC(=O)[C@H](CC(C)C)NC(=O)CNC(=O)[C@@H]1CCCN1C(=O)[C@H](CO)NC(=O)[C@H](CO)NC(=O)CNC(=O)[C@H](C)NC(=O)[C@@H]1CCCN1C(=O)[C@@H]1CCCN1C(=O)[C@@H]1CCCN1C(=O)[C@@H](N)CCCCNC(=O)Cn1nnc2c1CC[C@H]1[C@@H](CC2)[C@H]1COC(=O)NCCOCCOCCNC(=O)CCCCC[N+]1=C(/C=C/C=C2/N(C)c3ccccc3C2(C)C)C(C)(C)c2ccccc21)C(=O)N[C@@H](CC(C)C)C(=O)O.[Cl-]`, the Vmax in series [1] was determined as 1367.
For `CC[C@H](C)[C@H](NC(=O)[C@H](Cc1ccc(O)cc1)NC(=O)[C@@H]1CCCN1C(=O)[C@H](CCCNC(=N)N)NC(=O)[C@H](CCCNC(=N)N)NC(=O)[C@@H]1CCCN1C(=O)[C@H](CCCCN)NC(=O)[C@H](CC(N)=O)NC(=O)[C@H](CCC(=O)O)NC(=O)[C@H](Cc1ccc(O)cc1)NC(=O)[C@H](CC(C)C)NC(=O)[C@@H](N)CCCCNC(=O)Cn1nnc2c1CC[C@H]1[C@@H](CC2)[C@H]1COC(=O)NCCOCCOCCNC(=O)CCCCC[N+]1=C(/C=C/C=C2/N(C)c3ccccc3C2(C)C)C(C)(C)c2ccccc21)C(=O)N[C@@H](CC(C)C)C(=O)O.[Cl-]`, in series [2], the Drug uptake entry is “Not Active”. Further, in series [1], the Km was 0.08 µM and the Vmax is reported as 1397.

(Values after ChEMBL document CHEMBL4627413, “Targeted Delivery of Antisense Oligonucleotides Using Neurotensin Peptides” (J Med Chem, 2020).)
